The values that follow are results of earlier work, collected in patent US20130115246A1 (Lupin Atlantis Holdings, S.A., priority 2011, published 2013).

The conditions of the data set: in vivo.

Consider `CC(C)(Oc1ccc(C(=O)c2ccc(Cl)cc2)cc1)C(=O)O` [Fenofibric acid], for which the elimination half-life entry is reported as “about 20 hours”.
